According to patent US6346615B1, “Chemiluminescent 1,2-dioxetanes” (Tropix, Inc., priority 1989, dated 2002):

Legend:
alkaline phosphatase [1] = test: Chemiluminescence emission wavelength maximum (Spex Fluorolog); type: biochemical; conditions: for μL em: 0.1M DEA, pH, 25° C., dioxetane concentration 3.7 × 10^−7M to 6 × 10^−6M; for Emission Max, nm, +BDMQ: in the presence of BDMQ; for Emission Max, nm, No Addition: no enhancement agent; for Emission Max, nm, On Nylon: on a nylon membrane
Procedure: […] The solution was equilibrated 5 minutes in a Spex Fluorolog Fluorimeter and then scanned 5 times at 0.5 sec/nm for chemiluminescent emission. The chemiluminescence emission wavelength maximum was recorded.

alkaline phosphatase [2] = test: Quantum yield determination of dioxetane chemiluminescence after alkaline phosphatase addition; type: biochemical; conditions: 0.1M DEA, pH, 25° C., dioxetane concentration 3.7 × 10^−7M to 6 × 10^−6M
Excerpt: Various dioxetanes within the scope of this invention have been prepared and tested for essential properties, such as quantum yield (performed by an independent laboratory according to the procedure listed below), T½ and the emission wavelength maxima. These dioxetanes are identified by number, and in the tables following after the number, the identity of the substituent on the adamantyl ring, if any followed by the identity of the Z substituent is given. In the compounds tested, X is phosphate. Values for quantum yield and T½ are obtained both for the dioxetane along in 0.1 molar DEA, and in the presence of an enhancement agent, Sapphire II.
[…] […] […] The tube was then placed in MGM Optocomp® I luminometer and the light signal was measured at 1 sec integration times. […] The total counts for the dioxetane were determined from the intensity data. Total counts observed for a given concentration of dioxetane is the product of Photon Detection Efficiency (PDE) of the luminometer, the quantum yield of dioxetane and the number of molecules capable of emitting light (concentration of dephosphorylated dioxetanes). PDE for the MGM Optocomp® I luminometer was determined to be 2.56×10^−3, measured with a Biolink® absolute standard and utilizing the known spectral response of the luminometer's PMT and the known emission spectrum of the dioxetanes. The quantum yield is calculated by dividing the total counts measured by the PDE and the concentration of the dioxetane.

Row | Compound | μL em (alkaline phosphatase [1]) | Emission Max, nm, +BDMQ (alkaline phosphatase [1]) | Emission Max, nm, No Addition (alkaline phosphatase [1]) | Emission Max, nm, On Nylon (alkaline phosphatase [1]) | μL em (alkaline phosphatase [1]; second table) | Quantum Yield (alkaline phosphatase [2]) | Quantum Yield (alkaline phosphatase [2]; second table)
1 | COC1(c2cc(Cl)cc(OP(=O)([O-])[O][NaH2-2])c2)OOC12C1CC3CC(C1)CC2C3.[Na+] (stereo not drawn) [Dioxetane 128-70, Disodium 3-chloro-5-(methoxyspiro(1,2-dioxetane-3,2′-tricylo[3.3.1.1^3,7]-decan]-4-yl)-1-phenyl Phosphate] | 471 | 463 nm | 471 nm | 461 nm | 471 | 1.4 × 10^−4 | 1.4 × 10^−4
2 | COC1(c2cc(Cl)cc(OP(=O)([O-])[O][NaH2-2])c2)OOC12C1CC3CC2CC(Cl)(C3)C1.[Na+] (stereo not drawn) [Dioxetane 128-87, Disodium 3-chloro-5-(methoxyspiro(1,2-dioxetane-3,2′-(5-chloro-)tricyclo-[3.3.1.1^3,7]-decan]-4-yl)-1-phenyl Phosphate] | 470 | 464 nm | 470 nm | 459 nm | 470 | 1.2 × 10^−4 | 1.2 × 10^−4
3 | COc1cc(OP(=O)([O-])[O][NaH2-2])cc(C2(OC)OOC23C2CC4CC(C2)CC3C4)c1.[Na+] (stereo not drawn) [Dioxetane 140-20, Disodium 5-methoxy-3-(methoxyspiro(1,2-dioxetane-3,2′-tricyclo[3.3.1.1^3,7]-decan]-4-yl)-1-phenyl Phosphate] | 476 | 466 nm | 476 nm | 461 nm | 476 | 1.5 × 10^−5 | 1.5 × 10^−5
4 | COC1(c2cccc(OP(=O)(O)O)c2)OOC12C1CC3CC2CC(Cl)(C3)C1 (stereo not drawn) [CSPD, reference compound] | 475 | – | – | – | 475 | 5.2 × 10^−5 | 5.2 × 10^−5
5 | COC1(c2cccc(OP(=O)(O)O)c2)OOC12C1CC3CC(C1)CC2C3 (stereo not drawn) [AMPPD, 3-(2′-spiroadamantane)4-methoxy-4-(3″-phosphoryloxy)phenyl-1,2-dioxetane, reference compound] | 477 | – | – | – | 477 | 1.5 × 10^−5 | 1.5 × 10^−5
6 | COc1cc(OP(=O)([O-])[O][NaH2-2])cc(C2(OC)OOC23C2CC4CC3CC(Cl)(C4)C2)c1.[Na+] (stereo not drawn) [Dioxetane 140-17, Disodium 5-methoxy-3-(methoxyspiro(1,2-dioxetane-3,2′-(5-chloro-)tricyclo-[3.3.1.1^3,7]-decan]-4-yl)-1-phenyl Phosphate] | 475 | 464 nm | 475 nm | 463 nm | 475 | 2.3 × 10^−5 | 2.3 × 10^−5
